# Measured values taken from ChEMBL document CHEMBL4138119, “Anti-diabetic activity of fused PPARγ-SIRT1 ligands with limited body-weight gain by mimicking calorie restriction and decreasing SGK1 expression” (Eur J Med Chem, 2017).
# Calls of active or inactive are those of the source. The rule behind the calls is not given here.
# How the values were obtained:
# [1] = biological target: T1, Peroxisome proliferator-activated receptor alpha (Homo sapiens, UniProt Q07869); assay: Transactivation of human Gal4-fused PPARalpha LBD expressed in African green monkey COS7 cells after 24 hrs by luciferase reporter gene assay; type: cell-based
# T1 sequence (Q07869 whole entry): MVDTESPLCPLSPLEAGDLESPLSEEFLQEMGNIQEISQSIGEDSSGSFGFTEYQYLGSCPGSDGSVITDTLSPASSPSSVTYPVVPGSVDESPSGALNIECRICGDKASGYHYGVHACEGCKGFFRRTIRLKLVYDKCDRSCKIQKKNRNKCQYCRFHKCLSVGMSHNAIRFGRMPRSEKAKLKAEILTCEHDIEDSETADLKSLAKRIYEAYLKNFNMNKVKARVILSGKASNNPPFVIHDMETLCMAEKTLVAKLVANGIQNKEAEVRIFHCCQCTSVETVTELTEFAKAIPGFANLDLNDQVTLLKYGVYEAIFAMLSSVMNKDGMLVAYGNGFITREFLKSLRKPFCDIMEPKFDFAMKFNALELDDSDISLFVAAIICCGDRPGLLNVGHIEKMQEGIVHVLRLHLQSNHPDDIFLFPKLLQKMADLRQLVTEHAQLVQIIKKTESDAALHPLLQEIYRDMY
# [2] = biological target: T2, NAD-dependent protein deacetylase sirtuin-1 (Homo sapiens) (UniProt Q96EB6); assay: Activation of recombinant human SIRT1 at 10 uM using C-terminal AMC labeled Arg-His-Lys-Lys (Ac) as substrate after 30 mins by FLUOR DE LYS fluorescent assay relative to control
# T2 sequence (whole entry): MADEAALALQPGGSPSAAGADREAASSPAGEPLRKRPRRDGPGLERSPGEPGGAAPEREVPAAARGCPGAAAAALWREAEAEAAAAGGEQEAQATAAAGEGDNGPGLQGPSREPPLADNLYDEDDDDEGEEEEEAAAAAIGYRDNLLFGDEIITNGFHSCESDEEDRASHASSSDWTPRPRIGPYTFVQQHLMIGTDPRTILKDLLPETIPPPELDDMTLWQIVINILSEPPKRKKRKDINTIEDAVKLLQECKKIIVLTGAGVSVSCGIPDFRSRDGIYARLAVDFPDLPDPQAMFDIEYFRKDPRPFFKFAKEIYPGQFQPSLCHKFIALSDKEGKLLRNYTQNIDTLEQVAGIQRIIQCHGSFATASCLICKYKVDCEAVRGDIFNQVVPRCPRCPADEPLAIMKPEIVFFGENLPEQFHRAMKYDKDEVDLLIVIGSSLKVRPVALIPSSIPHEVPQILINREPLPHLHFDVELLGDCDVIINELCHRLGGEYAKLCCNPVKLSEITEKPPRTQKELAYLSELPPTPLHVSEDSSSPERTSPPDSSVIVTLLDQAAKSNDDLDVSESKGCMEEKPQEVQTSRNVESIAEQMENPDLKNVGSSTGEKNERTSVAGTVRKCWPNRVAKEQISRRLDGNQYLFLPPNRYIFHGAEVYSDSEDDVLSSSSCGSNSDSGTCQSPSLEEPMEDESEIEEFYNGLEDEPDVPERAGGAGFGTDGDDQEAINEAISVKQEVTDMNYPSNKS
# [3] = biological target: T3, Peroxisome proliferator-activated receptor delta (Homo sapiens) (UniProt Q03181); assay: Transactivation of human PPARdelta at 10 uM
# T3 sequence (whole entry): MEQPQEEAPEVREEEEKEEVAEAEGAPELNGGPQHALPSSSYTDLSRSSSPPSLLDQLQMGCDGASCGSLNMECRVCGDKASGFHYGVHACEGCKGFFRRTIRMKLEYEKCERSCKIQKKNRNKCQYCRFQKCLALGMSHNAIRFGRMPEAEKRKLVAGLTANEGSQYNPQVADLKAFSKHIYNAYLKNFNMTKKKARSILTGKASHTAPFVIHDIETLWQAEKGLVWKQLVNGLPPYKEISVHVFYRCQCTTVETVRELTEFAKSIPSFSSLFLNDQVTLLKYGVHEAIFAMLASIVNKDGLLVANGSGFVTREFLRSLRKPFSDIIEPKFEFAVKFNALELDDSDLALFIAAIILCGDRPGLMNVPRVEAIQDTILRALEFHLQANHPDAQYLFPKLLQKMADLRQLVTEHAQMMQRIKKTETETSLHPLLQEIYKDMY
# [4] = biological target: T4, Peroxisome proliferator-activated receptor gamma (Homo sapiens, UniProt P37231); assay: Transactivation of human Gal4-fused PPARgamma LBD expressed in African green monkey COS7 cells after 24 hrs by luciferase reporter gene assay; type: cell-based
# T4 sequence (P37231 whole entry): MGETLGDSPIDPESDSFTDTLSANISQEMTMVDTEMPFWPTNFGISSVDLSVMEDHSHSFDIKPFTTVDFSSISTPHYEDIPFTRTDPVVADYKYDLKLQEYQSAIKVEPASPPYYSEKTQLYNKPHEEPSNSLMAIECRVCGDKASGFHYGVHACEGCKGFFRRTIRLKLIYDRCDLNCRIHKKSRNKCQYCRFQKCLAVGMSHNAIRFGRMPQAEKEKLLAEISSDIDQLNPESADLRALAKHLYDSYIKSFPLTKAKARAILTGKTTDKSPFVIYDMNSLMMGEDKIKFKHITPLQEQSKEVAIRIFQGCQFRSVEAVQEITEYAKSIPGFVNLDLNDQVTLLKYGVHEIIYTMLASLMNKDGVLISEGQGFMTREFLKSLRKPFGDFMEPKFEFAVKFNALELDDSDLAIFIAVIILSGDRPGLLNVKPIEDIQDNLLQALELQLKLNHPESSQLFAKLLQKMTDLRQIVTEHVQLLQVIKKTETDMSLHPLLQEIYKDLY
# Mus musculus [5] = assay: Anti-diabetic activity in ob/ob mouse assessed as change in serum glucose levels at 8.4 uM/kg administered via oral gavage daily for 4 days measured on day 5 relative to control; type: functional
# Mus musculus [6] = assay: Anti-diabetic activity in ob/ob mouse assessed as change in serum triglyceride levels at 8.4 uM/kg administered via oral gavage daily for 4 days measured on day 5 relative to control; type: functional
# Mus musculus [7] = assay: Toxicity in ob/ob mouse assessed as change in body weight at 8.4 uM/kg administered via oral gavage daily for 4 days measured on day 5 relative to control; type: organism-based; conditions: in vivo, 96 h, 8.4 µmol/kg
# [8] = biological target: T5, Peroxisome proliferator-activated receptor alpha (Homo sapiens) (UniProt Q07869); assay: Transactivation of human Gal4-fused PPARalpha LBD expressed in African green monkey COS7 cells after 24 hrs by luciferase reporter gene assay relative to WY14643; type: cell-based
# T5 sequence (whole entry): T1 sequence (Q07869 whole entry)
# [9] = Modulation of SGK1 mRNA expression in HCCD cells at 20 uM after 24 hrs by RT-PCR method relative to control; type: functional, Homo sapiens
# Mus musculus [10] = assay: Anti-diabetic activity in ob/ob mouse assessed as change in serum insulin levels at 8.4 uM/kg administered via oral gavage daily for 4 days measured on day 5 relative to control; type: functional
SMILES,EC50 [1],Activity [2],Activity [3],EC50 ([4]; read-out: EC50),Activity (Mus musculus [5]),Activity (Mus musculus [6]),Activity (Mus musculus [7]),Emax [8],Activity [9],Activity (Mus musculus [10]),EC50 [4]
CCOC(=O)C(Cc1ccc(OCCn2c(=O)sc3cc(/C=C/c4cc(O)cc(O)c4)ccc32)cc1)OCC(F)(F)F (centres undefined),10000 nM,-28%,inactive,80 nM,-40%,-25%,56%,149%,83%,-41%,–
O=C(O)C(Cc1ccc(OCCn2c(=O)sc3cc(/C=C/c4cc(O)cc(O)c4)ccc32)cc1)OCC(F)(F)F (centres undefined),10000 nM,128%,inactive,200 nM,-40%,-39%,32%,100%,-57%,-43%,–
CCOC(Cc1ccc(OCCn2c(=O)sc3cc(/C=C/c4cc(OC)cc(OC)c4)ccc32)cc1)C(=O)NC (centres undefined),10000 nM,17%,inactive,< 10 nM,-14%,-29%,111%,0%,-43%,-36%,–
CCOC(=O)C(Cc1ccc(OCCn2c(=O)sc3cc(C(=O)/C=C/c4cc(OC)cc(OC)c4)ccc32)cc1)OCC (centres undefined),10000 nM,2%,inactive,30 nM,-25%,-34%,112%,0%,-14%,-7%,–
CCOC(=O)C(Cc1ccc(OCCn2c(=O)sc3cc(/C=C/c4cc(OC)cc(OC)c4)ccc32)cc1)OCC(F)(F)F (centres undefined),10000 nM,-7%,inactive,50 nM,-11%,-3%,61%,136%,-62%,-14%,–
Cc1cccc(Nc2cc(Cl)nc(SCC(=O)O)n2)c1C [PIRINIXIC ACID],–,–,–,–,–,–,–,–,–,–,Not Active
CCOC(Cc1ccc(OCCn2c(=O)sc3cc(/C=C/c4cc(OC)cc(OC)c4)ccc32)cc1)C(=O)O (centres undefined),1000 nM,–,inactive,< 10 nM,-42%,-56%,192%,494%,–,-33%,–
CCOC(=O)C(Cc1ccc(OCCn2c(=O)sc3cc(C(=O)/C=C/c4cc(OC)cc(OC)c4)ccc32)cc1)OCC(F)(F)F (centres undefined),10000 nM,0%,inactive,200 nM,2%,-24%,93%,21%,-53%,17%,–
CCOC(Cc1ccc(OCCn2c(=O)sc3cc(/C=C/c4cc(O)cc(O)c4)ccc32)cc1)C(=O)O (centres undefined),10000 nM,92%,inactive,1000 nM,-45%,-52%,110%,29%,-39%,-40%,–
CCOC(=O)C(Cc1ccc(OCCn2c(=O)sc3cc(C(=O)/C=C/c4cc(O)cc(O)c4)ccc32)cc1)OCC(F)(F)F (centres undefined),10000 nM,24%,inactive,30 nM,-5%,-8%,75%,12%,180%,11%,–
CCOC(Cc1ccc(OCCn2c(=O)sc3cc(/C=C/c4cc(OC)cc(OC)c4)ccc32)cc1)C(N)=O (centres undefined),1000 nM,-12%,inactive,< 10 nM,-27%,-32%,158%,35%,-43%,-26%,–
CCOC(=O)C(Cc1ccc(OCCn2c(=O)sc3cc(/C=C/c4cc(O)cc(O)c4)ccc32)cc1)OCC (centres undefined),10000 nM,59%,inactive,10 nM,-35%,-19%,49%,76%,134%,-37%,–
CCOC(Cc1ccc(OCCn2c(=O)sc3cc(C(=O)/C=C/c4cc(OC)cc(OC)c4)ccc32)cc1)C(=O)O (centres undefined),10000 nM,23%,inactive,1000 nM,-27%,-31%,150%,53%,736%,18%,–
COc1cc(/C=C/C(=O)c2ccc3c(c2)sc(=O)n3CCOc2ccc(CC(OCC(F)(F)F)C(=O)O)cc2)cc(OC)c1 (centres undefined),10000 nM,24%,inactive,1000 nM,-14%,-18%,142%,36%,820%,28%,–
CCOC(=O)C(Cc1ccc(OCCn2c(=O)sc3cc(/C=C/c4cc(OC)cc(OC)c4)ccc32)cc1)OCC (centres undefined),2000 nM,13%,inactive,< 10 nM,-36%,-35%,79%,149%,-23%,-28%,–
COc1cc(/C=C/c2ccc3c(c2)sc(=O)n3CCOc2ccc(CC(OCC(F)(F)F)C(=O)O)cc2)cc(OC)c1 (centres undefined),300 nM,-4%,inactive,20 nM,-36%,-23%,81%,170%,89%,-61%,–
